The results in this text go back to ChEMBL document CHEMBL5291721, “A preclinical secondary pharmacology resource illuminates target-adverse drug reaction associations of marketed drugs” (Nat Commun, 2023).

One assay deals with Melanocortin receptor 3 (Homo sapiens, UniProt P41968).
The target of assay [1] is T1, Alpha-2A adrenergic receptor (Homo sapiens, UniProt P08913).
T1 sequence (P08913 whole entry): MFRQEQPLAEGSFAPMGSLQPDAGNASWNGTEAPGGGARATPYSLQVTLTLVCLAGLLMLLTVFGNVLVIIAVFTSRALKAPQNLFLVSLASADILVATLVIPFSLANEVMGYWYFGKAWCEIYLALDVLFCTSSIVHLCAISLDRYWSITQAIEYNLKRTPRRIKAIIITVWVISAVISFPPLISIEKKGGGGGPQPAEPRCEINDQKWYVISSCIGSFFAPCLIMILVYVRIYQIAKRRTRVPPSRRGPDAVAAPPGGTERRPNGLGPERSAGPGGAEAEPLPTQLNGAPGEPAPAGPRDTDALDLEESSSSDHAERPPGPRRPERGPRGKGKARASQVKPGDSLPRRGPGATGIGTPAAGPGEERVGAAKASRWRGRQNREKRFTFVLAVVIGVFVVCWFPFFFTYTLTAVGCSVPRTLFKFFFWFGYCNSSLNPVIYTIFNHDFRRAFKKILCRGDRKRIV
In kind it is functional, cell-based.

The target of the next assay is D(3) dopamine receptor (Homo sapiens, UniProt P35462).
In assay [2] the target is T2, Cholecystokinin receptor type A (Homo sapiens, UniProt P32238).
T2 sequence (P32238 whole entry): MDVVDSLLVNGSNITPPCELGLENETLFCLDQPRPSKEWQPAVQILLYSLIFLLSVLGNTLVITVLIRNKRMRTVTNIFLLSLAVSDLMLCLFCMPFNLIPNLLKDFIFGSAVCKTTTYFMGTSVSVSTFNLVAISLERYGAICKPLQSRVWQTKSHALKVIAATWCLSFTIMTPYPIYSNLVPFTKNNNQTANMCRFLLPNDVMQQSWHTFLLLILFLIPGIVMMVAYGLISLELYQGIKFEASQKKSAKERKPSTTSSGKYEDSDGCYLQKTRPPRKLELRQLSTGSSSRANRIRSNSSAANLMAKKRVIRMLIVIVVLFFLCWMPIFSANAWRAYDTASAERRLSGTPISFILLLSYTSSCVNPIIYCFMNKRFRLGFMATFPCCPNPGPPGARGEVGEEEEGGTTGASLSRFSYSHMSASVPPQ

The target in assay [3] is 5-hydroxytryptamine receptor 2B (Homo sapiens, UniProt P41595). In kind it is functional, cell-based.
The target of assay [4] is Voltage-gated inwardly rectifying potassium channel KCNH2 (Homo sapiens, UniProt Q12809). Format: functional. Conditions: read-out: AC50.
Assay [5] has as its target T3, Alpha-2C adrenergic receptor (Homo sapiens, UniProt P18825).
T3 sequence (P18825 whole entry): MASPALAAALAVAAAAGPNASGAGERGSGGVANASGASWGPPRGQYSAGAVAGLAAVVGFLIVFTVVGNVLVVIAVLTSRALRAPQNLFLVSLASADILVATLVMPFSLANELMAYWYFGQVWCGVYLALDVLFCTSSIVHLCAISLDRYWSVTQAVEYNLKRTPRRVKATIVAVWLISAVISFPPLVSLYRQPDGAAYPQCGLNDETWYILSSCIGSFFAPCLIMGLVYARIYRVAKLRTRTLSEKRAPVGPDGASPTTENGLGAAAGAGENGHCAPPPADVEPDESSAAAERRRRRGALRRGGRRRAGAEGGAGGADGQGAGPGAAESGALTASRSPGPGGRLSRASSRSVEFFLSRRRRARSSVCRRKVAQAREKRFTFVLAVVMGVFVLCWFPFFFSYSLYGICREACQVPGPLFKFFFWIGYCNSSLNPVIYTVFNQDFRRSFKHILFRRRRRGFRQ
In kind it is functional.

For assay [6], the target named is T1, Alpha-2A adrenergic receptor. In kind it is functional, cell-based. This is another data set of the same source.
Assay [7] addresses T4, Prostaglandin G/H synthase 1 (Rattus norvegicus, UniProt Q63921).
T4 sequence (Q63921 whole entry): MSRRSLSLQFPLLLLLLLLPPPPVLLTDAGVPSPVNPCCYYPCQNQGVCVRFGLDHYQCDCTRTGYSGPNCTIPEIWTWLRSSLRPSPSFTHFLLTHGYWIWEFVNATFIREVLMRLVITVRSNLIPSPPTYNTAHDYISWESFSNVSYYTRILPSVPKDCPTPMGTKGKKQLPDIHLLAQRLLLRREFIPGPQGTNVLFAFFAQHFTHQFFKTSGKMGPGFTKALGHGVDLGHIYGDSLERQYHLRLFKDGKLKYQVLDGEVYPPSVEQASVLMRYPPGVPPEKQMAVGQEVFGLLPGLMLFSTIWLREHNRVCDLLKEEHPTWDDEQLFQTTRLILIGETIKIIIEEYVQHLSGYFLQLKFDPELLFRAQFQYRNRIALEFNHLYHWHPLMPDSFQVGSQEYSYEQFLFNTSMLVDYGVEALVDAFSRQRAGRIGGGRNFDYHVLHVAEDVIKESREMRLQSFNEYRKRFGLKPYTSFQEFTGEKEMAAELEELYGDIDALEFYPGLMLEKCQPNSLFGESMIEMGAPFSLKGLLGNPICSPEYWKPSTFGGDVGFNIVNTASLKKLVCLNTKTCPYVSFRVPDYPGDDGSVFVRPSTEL
Format: functional.

The target in another assay is T5, Adenosine receptor A3 (Homo sapiens, UniProt P0DMS8).
T5 sequence (P0DMS8 whole entry): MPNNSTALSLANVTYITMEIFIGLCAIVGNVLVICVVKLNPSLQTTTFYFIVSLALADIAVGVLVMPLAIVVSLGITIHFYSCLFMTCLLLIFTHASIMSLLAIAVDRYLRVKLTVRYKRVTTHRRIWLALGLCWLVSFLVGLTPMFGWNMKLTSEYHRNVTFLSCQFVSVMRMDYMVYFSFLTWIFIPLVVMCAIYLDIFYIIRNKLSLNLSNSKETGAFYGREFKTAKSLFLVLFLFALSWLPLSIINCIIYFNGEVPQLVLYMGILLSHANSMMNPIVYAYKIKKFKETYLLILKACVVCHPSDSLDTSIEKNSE

In a further assay the target is D(1A) dopamine receptor (Homo sapiens, UniProt P21728). In kind it is functional, cell-based.
Assay [8] has as its target Gamma-aminobutyric acid receptor subunit alpha-1 (Rattus norvegicus, UniProt P62813). In kind it is functional.
The target of assay [9] is 3',5'-cyclic-AMP phosphodiesterase 4D (Homo sapiens, UniProt Q08499). Format: functional.
Note: assay procedure not described here.

D(3) dopamine receptor, sequence (P35462 whole entry): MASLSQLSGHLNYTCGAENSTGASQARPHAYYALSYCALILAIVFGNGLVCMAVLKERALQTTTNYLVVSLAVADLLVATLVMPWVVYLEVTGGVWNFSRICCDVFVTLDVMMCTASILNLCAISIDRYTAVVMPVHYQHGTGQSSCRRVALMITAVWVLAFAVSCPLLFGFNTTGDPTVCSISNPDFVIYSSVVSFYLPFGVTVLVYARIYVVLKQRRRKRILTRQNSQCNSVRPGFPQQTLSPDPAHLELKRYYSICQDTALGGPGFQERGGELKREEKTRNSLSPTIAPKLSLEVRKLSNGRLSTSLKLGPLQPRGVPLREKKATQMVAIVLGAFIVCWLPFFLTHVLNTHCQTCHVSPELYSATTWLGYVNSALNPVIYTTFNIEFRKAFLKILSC
Melanocortin receptor 3, sequence (P41968 whole entry): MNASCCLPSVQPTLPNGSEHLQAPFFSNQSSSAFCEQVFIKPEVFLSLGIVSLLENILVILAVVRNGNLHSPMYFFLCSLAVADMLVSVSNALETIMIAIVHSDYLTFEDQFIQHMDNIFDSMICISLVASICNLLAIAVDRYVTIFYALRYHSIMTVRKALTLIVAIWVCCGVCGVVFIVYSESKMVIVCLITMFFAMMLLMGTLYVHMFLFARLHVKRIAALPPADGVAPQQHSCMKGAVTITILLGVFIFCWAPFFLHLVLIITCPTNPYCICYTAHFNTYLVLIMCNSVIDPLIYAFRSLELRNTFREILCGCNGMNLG
5-hydroxytryptamine receptor 2B, sequence (P41595 whole entry): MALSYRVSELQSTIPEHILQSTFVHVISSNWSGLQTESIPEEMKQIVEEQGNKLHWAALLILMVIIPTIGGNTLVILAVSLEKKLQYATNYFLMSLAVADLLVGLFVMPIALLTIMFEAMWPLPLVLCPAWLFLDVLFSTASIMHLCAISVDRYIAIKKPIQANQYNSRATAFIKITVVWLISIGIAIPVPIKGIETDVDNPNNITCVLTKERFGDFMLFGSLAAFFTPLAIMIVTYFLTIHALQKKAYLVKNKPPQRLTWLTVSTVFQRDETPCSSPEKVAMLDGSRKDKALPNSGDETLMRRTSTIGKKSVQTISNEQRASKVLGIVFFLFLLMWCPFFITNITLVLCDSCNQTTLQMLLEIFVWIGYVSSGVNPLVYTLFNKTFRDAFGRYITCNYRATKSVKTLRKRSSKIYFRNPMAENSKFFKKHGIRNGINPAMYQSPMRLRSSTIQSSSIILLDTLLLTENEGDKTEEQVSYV
Gamma-aminobutyric acid receptor subunit alpha-1, sequence (P62813 whole entry): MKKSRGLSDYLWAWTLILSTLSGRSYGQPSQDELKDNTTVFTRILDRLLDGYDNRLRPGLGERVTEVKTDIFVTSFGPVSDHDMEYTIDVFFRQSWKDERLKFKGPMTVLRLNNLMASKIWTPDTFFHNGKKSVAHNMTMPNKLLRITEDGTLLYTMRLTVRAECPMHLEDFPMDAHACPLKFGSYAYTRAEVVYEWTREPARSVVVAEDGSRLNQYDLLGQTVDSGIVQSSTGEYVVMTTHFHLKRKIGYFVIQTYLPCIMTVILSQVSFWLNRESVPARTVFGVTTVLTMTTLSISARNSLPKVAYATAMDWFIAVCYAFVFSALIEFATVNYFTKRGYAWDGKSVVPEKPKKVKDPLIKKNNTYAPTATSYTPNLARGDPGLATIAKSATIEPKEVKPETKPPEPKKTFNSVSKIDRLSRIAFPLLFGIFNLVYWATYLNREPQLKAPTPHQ
D(1A) dopamine receptor, sequence (P21728 whole entry): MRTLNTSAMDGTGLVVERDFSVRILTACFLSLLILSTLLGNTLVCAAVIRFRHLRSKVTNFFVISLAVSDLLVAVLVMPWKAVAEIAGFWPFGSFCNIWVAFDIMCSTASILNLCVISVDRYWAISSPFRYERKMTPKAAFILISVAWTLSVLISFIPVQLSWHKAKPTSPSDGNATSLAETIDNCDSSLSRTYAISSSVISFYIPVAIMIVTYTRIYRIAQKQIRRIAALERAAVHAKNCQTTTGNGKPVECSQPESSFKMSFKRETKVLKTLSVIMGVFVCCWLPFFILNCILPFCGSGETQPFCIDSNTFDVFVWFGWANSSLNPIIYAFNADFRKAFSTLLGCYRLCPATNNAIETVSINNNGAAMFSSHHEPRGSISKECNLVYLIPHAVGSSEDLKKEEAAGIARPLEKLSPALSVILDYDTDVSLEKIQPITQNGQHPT
3',5'-cyclic-AMP phosphodiesterase 4D, sequence (Q08499 whole entry): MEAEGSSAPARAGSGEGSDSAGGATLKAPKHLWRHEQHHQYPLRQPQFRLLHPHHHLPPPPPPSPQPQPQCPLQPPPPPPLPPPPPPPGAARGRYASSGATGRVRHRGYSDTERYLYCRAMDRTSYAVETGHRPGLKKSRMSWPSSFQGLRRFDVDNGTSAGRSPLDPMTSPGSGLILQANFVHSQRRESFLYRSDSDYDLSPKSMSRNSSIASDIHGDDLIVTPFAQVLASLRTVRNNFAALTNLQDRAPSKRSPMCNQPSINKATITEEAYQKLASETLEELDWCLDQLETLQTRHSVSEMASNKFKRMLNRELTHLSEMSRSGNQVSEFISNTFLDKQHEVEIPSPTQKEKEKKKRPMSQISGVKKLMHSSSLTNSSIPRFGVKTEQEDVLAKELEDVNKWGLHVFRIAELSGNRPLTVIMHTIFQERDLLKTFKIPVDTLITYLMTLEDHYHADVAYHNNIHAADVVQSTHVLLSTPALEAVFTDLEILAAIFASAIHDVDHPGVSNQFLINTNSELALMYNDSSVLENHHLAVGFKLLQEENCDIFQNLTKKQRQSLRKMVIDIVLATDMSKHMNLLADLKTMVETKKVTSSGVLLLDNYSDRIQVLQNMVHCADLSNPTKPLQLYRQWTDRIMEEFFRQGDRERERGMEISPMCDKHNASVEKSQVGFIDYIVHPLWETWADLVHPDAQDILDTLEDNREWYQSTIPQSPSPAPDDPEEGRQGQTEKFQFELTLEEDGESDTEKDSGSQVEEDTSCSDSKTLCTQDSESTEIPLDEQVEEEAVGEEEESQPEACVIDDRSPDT
Voltage-gated inwardly rectifying potassium channel KCNH2, sequence (Q12809 whole entry): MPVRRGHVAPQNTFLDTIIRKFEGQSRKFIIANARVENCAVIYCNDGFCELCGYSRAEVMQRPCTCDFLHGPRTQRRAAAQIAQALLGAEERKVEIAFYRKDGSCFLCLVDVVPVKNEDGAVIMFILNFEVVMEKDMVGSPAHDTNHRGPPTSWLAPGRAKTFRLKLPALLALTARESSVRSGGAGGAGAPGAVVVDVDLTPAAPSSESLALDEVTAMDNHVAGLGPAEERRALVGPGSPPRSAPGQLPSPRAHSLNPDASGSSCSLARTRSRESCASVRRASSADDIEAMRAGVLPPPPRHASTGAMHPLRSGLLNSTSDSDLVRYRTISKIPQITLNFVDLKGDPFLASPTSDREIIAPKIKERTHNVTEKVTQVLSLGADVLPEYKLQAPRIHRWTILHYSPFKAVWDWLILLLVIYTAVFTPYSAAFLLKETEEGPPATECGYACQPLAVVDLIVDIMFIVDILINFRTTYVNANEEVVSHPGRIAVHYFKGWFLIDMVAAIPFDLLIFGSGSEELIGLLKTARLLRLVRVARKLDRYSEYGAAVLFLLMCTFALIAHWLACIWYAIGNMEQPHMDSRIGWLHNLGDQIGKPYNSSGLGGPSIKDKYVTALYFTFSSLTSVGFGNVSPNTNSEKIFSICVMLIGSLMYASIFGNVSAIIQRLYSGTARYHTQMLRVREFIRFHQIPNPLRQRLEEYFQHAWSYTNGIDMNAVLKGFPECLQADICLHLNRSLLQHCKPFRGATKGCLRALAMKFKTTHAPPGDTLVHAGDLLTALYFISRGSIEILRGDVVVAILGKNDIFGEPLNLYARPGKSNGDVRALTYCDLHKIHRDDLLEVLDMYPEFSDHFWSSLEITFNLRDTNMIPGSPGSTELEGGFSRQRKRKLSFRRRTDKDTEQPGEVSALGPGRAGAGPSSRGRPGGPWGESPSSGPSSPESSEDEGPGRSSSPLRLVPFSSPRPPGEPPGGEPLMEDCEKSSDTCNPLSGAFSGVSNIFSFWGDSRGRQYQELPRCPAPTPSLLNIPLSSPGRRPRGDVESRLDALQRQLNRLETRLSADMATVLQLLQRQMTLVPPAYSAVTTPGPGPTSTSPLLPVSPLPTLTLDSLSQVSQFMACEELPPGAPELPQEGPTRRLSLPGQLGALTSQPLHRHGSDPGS

Turning to `C#C[C@]1(O)CC[C@H]2[C@@H]3CCc4cc(O)ccc4[C@H]3CC[C@@]21C` [ETHINYL ESTRADIOL], the concentration at half-maximal activity (AC50) – broadly, the midpoint of the concentration-response curve, whichever way the signal moves – was above 30 µM on Melanocortin receptor 3; above 10 µM in assay [1]; above 10 µM on D(3) dopamine receptor; above 30 µM in assay [2]; 18 µM in assay [3]; above 30 µM in assay [4]. The half-maximal activity concentration (AC50) in assay [5] is above 10 µM; in assay [6], above 10 µM; in assay [7] it was 24.3 µM; on Adenosine receptor A3, 13.5 µM; on D(1A) dopamine receptor, above 10 µM; in [8], above 10 µM. This compound also showed an AC50 in [9] of 16 µM.

Turning to `COC(=O)N[C@H](C(=O)N[C@@H](Cc1ccccc1)[C@@H](O)CN(Cc1ccc(-c2ccccn2)cc1)NC(=O)[C@@H](NC(=O)OC)C(C)(C)C)C(C)(C)C` [ATAZANAVIR], the AC50 on Melanocortin receptor 3 is above 30 µM; in assay [1] it was above 10 µM; at D(3) dopamine receptor, above 30 µM; in assay [2], 17.6 µM; in assay [3] it was above 10 µM; in [4], above 30 µM. For the same compound, the AC50 in assay [5] was above 10 µM; in assay [6], above 10 µM; in assay [7], above 10 µM; on Adenosine receptor A3 it was above 30 µM; on D(1A) dopamine receptor it was above 10 µM; in [8], above 10 µM. For the same compound, the AC50 in [9] is above 30 µM.

For the compound `CC[C@H](C)C(=O)O[C@H]1C[C@H](O)C=C2C=C[C@H](C)[C@H](CC[C@@H](O)C[C@@H](O)CC(=O)O)[C@H]21` [PRAVASTATIN], the AC50 (at Melanocortin receptor 3; in assay [1]; at D(3) dopamine receptor; in [2]; in assay [3]; in assay [4]) was above 30 µM throughout. The AC50 (in assay [5]; in [6]; in [7]; on Adenosine receptor A3; on D(1A) dopamine receptor; in assay [8]) was above 30 µM in each case. The same compound showed a concentration at half-maximal activity (AC50) in assay [9] above 30 µM.

As to `CC(C)NNC(=O)c1ccncc1` [IPRONIAZID], the half-maximal activity concentration (AC50) (on Melanocortin receptor 3; in assay [1]; at D(3) dopamine receptor; in assay [2]; in assay [3]; in assay [4]) was above 30 µM each time. Further, the concentration at half-maximal activity (AC50) in assay [5] is above 30 µM; in assay [6], above 30 µM; in assay [7], 0.45 µM; on Adenosine receptor A3, above 30 µM; at D(1A) dopamine receptor, above 30 µM; in [8], above 30 µM. The compound also showed an AC50 in [9] above 30 µM.

In the case of `Oc1ncnc2[nH]ncc12` [ALLOPURINOL], the AC50 on Melanocortin receptor 3 was above 30 µM; in assay [1], above 10 µM; on D(3) dopamine receptor, above 10 µM; in assay [2], above 30 µM; in assay [3], above 10 µM; in assay [4], above 30 µM. Also, the AC50 in assay [5] is above 10 µM; in [6], above 10 µM; in assay [7], above 30 µM; on Adenosine receptor A3, above 30 µM; at D(1A) dopamine receptor, above 10 µM; in assay [8], above 10 µM. The same compound returned a concentration at half-maximal activity (AC50) in assay [9] above 30 µM.

On to `CC(C)Cc1ccc(CC(=O)O)cc1` [IBUFENAC], for which the AC50 (on Melanocortin receptor 3; in [1]; on D(3) dopamine receptor; in assay [2]; in assay [3]; in assay [4]) was above 30 µM in each case. In addition, the half-maximal activity concentration (AC50) (in assay [5]; in [6]; in assay [7]; on Adenosine receptor A3; at D(1A) dopamine receptor; in [8]) was above 30 µM throughout. Further, in assay [9], the AC50 is above 30 µM.

Turning to `C[C@H]1C[C@@H]2[C@H]([C@@H](O)C[C@@]3(C)[C@H]2CC[C@]3(O)C(=O)CO)[C@@]2(C)C=CC(=O)C=C12` [METHYLPREDNISOLONE], the concentration at half-maximal activity (AC50) at Melanocortin receptor 3 was above 10 µM; in assay [1], above 10 µM; at D(3) dopamine receptor, above 30 µM; in [2] it was above 10 µM; in assay [3], above 10 µM; in [4], above 30 µM. The concentration at half-maximal activity (AC50) was above 30 µM in assay [5]; above 10 µM in assay [6]; above 10 µM in assay [7]; above 10 µM on Adenosine receptor A3; above 30 µM on D(1A) dopamine receptor; above 10 µM in assay [8]. For the same compound, in [9], the activity was half-maximal at 16 µM (AC50).

`CCN(CC)CCNC(=O)c1cc(Cl)c(N)cc1OC` [METOCLOPRAMIDE]: the half-maximal activity concentration (AC50) was above 30 µM at Melanocortin receptor 3; above 10 µM in assay [1]; 0.076 µM on D(3) dopamine receptor; above 30 µM in assay [2]; 4.3 µM in [3]; 2.77 µM in assay [4]. The AC50 is 3 µM in [5]; above 10 µM in assay [6]; above 30 µM in assay [7]; above 30 µM at Adenosine receptor A3; above 10 µM on D(1A) dopamine receptor; above 10 µM in [8]. Also, the AC50 in [9] is above 30 µM.

Turning to `C[C@H]1O[C@H](O[C@H]2[C@H](O)[C@@H](O)[C@@H](O[C@H]3[C@H](O)[C@@H](O)C(O)O[C@@H]3CO)O[C@@H]2CO)[C@H](O)[C@@H](O)[C@@H]1N[C@H]1C=C(CO)[C@@H](O)[C@H](O)[C@H]1O` (some centres not stated) [ACARBOSE], the concentration at half-maximal activity (AC50) on Melanocortin receptor 3 was above 30 µM; in assay [1] it was above 30 µM; at D(3) dopamine receptor, above 10 µM; in assay [2], above 30 µM; in assay [3], above 30 µM; in [4] it was above 30 µM. For the same compound, the half-maximal activity concentration (AC50) in assay [5] was above 10 µM; in assay [6], above 30 µM; in assay [7], above 30 µM; at Adenosine receptor A3 it was above 30 µM; on D(1A) dopamine receptor, above 10 µM; in [8], above 10 µM. In [9], this compound gave a concentration at half-maximal activity (AC50) above 30 µM.
